Assays:
Format in all cases: physicochemical
[1] = Coloring of compound solutions with glucose after storage (Experimental Example 4); design: key: −: No coloring; +: Coloring; ++: Marked coloring; conditions: for Degree of coloring, Sample solution after storage at 60° C. for 6 days: 10 mg compound in methanol 2 mL + 1 mL glucose aqueous solution 10 mg/mL; for Degree of coloring, Control solution after storage at 60° C. for 6 days: 10 mg compound in methanol 2 mL + 1 mL purified water (no glucose)
Method: The compounds of Preparation Examples 2 to 5 and 7 were each weighed in an amount of 10 mg in a stoppered test tube, added with methanol (2 mL), dissolved in the methanol, and then further added with a glucose aqueous solution (1 mL) of 10 mg/mL concentration to prepare sample solutions. Separately, the compounds of Preparation Examples 2 to 5 and 7 were each weighed in an amount of 10 mg in a stoppered test tube, added with methanol (2 mL), dissolved in the methanol, and then further added with purified water (1 mL) to prepare control solutions. The prepared sample solutions and the control solutions were stored in an incubator (Minijet Oven, Toyama Sangyo) at 60° C. for 6 days.

[2] = Coloring of solutions of the compound of Preparation Example 7 with additives after storage (Experimental Example 5); design: key to Degree of coloring, Sample solution after storage at 60° C. for 6 days / Degree of coloring, Control solution after storage at 60° C. for 6 days: −: No coloring; +: Coloring; ++: Marked coloring; conditions: for Degree of coloring, Sample solution after storage at 60° C. for 6 days: 10 mg compound of Preparation Example 7 in methanol 2 mL + 1 mL of 10 mg/mL aqueous solution of the additive; for Coloring of the solution of the compound of Preparation Example 7 by the influence of the additive: 60° C. for 6 days, methanol/water; for Degree of coloring, Control solution after storage at 60° C. for 6 days: control: 10 mg compound of Preparation Example 7 in methanol 2 mL + 1 mL purified water, no additive
Method: The compound obtained according to the method of Preparation Example 7 was weighed in an amount of 10 mg in a stoppered test tube, added with methanol (2 mL) for dissolution, and then further added with a 10 mg/mL aqueous solution of each of additives shown in Table 5 (1 mL) to prepare a sample solution. Separately, the compound obtained according to the method of Preparation Example 7 was weighed in an amount of 10 mg in a stoppered test tube, added with methanol (2 mL) for dissolution, and then further added with purified water (1 mL) to prepare a control solution. The prepared sample solutions and the control solution were stored in an incubator (Minijet Oven, Toyama Sangyo) at 60° C. for 6 days.

[3] = Solubility of crystal forms in an aqueous solvent

SMILES | Degree of coloring, Sample solution after storage at 60° C. for 6 days [1] | Degree of coloring, Control solution after storage at 60° C. for 6 days [1] | Degree of coloring, Sample solution after storage at 60° C. for 6 days [2] | Coloring of the solution of the compound of Preparation Example 7 by the influence of the additive [2] | Degree of coloring, Control solution after storage at 60° C. for 6 days [2] | Solubility in an aqueous solvent compared with the type B crystals [3]
Cn1ccc2cc(-c3cc(CCC(=O)O)cc(N)c3OCC3CCCC3)ccc21 [Compound of Preparation Example 4, 3-[3-amino-4-cyclopentylmethyloxy-5-(1-methyl-1H-indol-5-yl)phenyl]propionic acid] | ++ | − |  |  |  | 
Cc1ccc(CCOc2c(N)cc(CCC(=O)O)cc2-c2ccc3ccccc3c2)cc1 [Compound of Preparation Example 2, 3-{3-amino-4-[2-(4-methylphenyl)ethyloxy]-5-(naphthalen-2-yl)phenyl}propionic acid] | + | − |  |  |  | 
OC[C@H]1O[C@H](O[C@H]2O[C@H](CO)[C@@H](O)[C@H](O)[C@H]2O)[C@H](O)[C@@H](O)[C@@H]1O [Trehalose] |  |  | − | no coloring | − | 
OC[C@H]1O[C@@](CO)(O[C@H]2O[C@H](CO)[C@@H](O)[C@H](O)[C@H]2O)[C@@H](O)[C@@H]1O [Sucrose] |  |  | − | no coloring | − | 
Nc1cc(CCC(=O)O)cc(-c2ccc3[nH]ncc3c2)c1OC1Cc2ccccc2C1 [Compound of Preparation Example 5, 3-[3-amino-4-(indan-2-yloxy)-5-(1H-indazol-5-yl)phenyl]propionic acid] | + | − |  |  |  | 
Cn1ncc2cc(-c3cc(CCC(=O)O)cc(N)c3OC3Cc4ccccc4C3)ccc21 [Compound of Preparation Example 7, 3-[3-amino-4-(indan-2-yloxy)-5-(1-methyl-1H-indazol-5-yl)phenyl]propionic acid] | ++ | − |  |  |  | higher
OC[C@H]1O[C@H](O[C@H]2[C@H](O)[C@@H](O)[C@H](O)O[C@@H]2CO)[C@H](O)[C@@H](O)[C@@H]1O [Maltose] |  |  | + | coloring | − | 
Nc1cc(CCC(=O)O)cc(-c2ccc3[nH]ccc3c2)c1OCC1CCCC1 [Compound of Preparation Example 3, 3-[3-amino-4-cyclopentylmethyloxy-5-(1H-indol-5-yl)phenyl]propionic acid] | ++ | − |  |  |  | 

Other lines, results leading:

Degree of coloring, Sample solution after storage at 60° C. for 6 days [1] | Degree of coloring, Control solution after storage at 60° C. for 6 days [1] | Degree of coloring, Sample solution after storage at 60° C. for 6 days [2] | Coloring of the solution of the compound of Preparation Example 7 by the influence of the additive [2] | Degree of coloring, Control solution after storage at 60° C. for 6 days [2] | Solubility in an aqueous solvent compared with the type B crystals [3] | SMILES
 |  | + | coloring | − |  | O=C(CO)[C@@H](O)[C@H](O)[C@H](O)CO [Fructose]
 |  | − | no coloring | − |  | OC[C@@H](O)[C@@H](O)[C@H](O)[C@H](O)CO [D-Mannitol]
 |  | − | no coloring | − |  | OC[C@@H](O)[C@@H](O)CO [Erythritol]
 |  | ++ | coloring | − |  | O=C[C@H](O)[C@@H](O)[C@H](O)CO [Xylose]
 |  | + | coloring | − |  | OC[C@H]1O[C@@H](O[C@H]2[C@H](O)[C@@H](O)C(O)O[C@@H]2CO)[C@H](O)[C@@H](O)[C@H]1O (some centres unmarked) [Lactose]

From patent US9006225B2, “Stable pharmaceutical composition” (Asahi Kasei Pharma Corporation, priority 2008, dated 2015)
